Test results as given in paper PMC6278313.
Where two headings read alike, the source gives them in different places.

Assays:
COX-1 [1] = biological target: T1, COX-1 (Homo sapiens, UniProt P23219); set-up: endogenous in cells; host or cells: fresh human whole blood; details: footnote c; SE <15%; read-out: IC50 COX-1 Human WB (literature); cited from earlier work
human COX-2 = details: cited from earlier work
COX-1 [2] = biological target: T1, COX-1; experiment: COX-1 inhibition, human whole blood (Thromboxane B2 EIA)
[3] = tested on: all tested receptors, transporters, and binding sites; experiment: NIMH-PDSP radioligand binding screen, whole panel; details: 10 μM; except the sites named for 17 and 27
5-HT1B = 5-HT1B (Homo sapiens, UniProt P28222); experiment: NIMH-PDSP radioligand binding screen, 5-HT1B
Chain of 5-HT1B (P28222 whole entry): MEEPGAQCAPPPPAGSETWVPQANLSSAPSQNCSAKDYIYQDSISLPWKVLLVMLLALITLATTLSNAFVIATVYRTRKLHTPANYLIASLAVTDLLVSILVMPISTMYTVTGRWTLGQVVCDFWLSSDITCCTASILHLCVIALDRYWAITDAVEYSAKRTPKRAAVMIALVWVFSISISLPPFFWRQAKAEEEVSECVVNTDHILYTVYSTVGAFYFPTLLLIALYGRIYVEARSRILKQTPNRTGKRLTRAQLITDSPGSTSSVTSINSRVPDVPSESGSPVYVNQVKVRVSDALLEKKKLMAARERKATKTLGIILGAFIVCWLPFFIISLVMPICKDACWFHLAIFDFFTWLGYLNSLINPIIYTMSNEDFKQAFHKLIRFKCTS

[4] = biological target: DAT (dopamine transporter) (Homo sapiens, UniProt Q01959); experiment: NIMH-PDSP radioligand binding screen, DAT; details: read-out: inhibition of radioligand binding at DAT
Chain of DAT (dopamine transporter) (Q01959 whole entry, species assumed): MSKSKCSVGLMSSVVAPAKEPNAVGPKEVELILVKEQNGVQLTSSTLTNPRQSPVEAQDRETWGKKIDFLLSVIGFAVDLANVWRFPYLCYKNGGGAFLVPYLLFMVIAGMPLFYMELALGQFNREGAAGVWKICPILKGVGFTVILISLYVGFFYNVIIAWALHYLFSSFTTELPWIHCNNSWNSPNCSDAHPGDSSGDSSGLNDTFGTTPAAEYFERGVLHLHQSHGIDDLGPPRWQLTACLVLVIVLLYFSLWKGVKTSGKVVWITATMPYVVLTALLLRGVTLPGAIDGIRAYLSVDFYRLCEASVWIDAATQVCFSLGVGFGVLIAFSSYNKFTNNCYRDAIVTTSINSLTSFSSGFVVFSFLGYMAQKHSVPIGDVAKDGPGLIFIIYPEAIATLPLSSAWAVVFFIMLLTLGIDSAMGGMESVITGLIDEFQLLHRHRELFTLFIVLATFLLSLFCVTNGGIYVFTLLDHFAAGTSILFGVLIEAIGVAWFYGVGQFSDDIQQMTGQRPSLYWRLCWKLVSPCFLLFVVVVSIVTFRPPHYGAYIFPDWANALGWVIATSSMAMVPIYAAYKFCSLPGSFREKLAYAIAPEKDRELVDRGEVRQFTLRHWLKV

benzodiazepine (BzP) = experiment: NIMH-PDSP radioligand binding screen, benzodiazepine site; set-up: species or system rat; details: 10 μM
COX-1 [5] = biological target: T2, COX-1 (Macaca mulatta, UniProt F6S984); experiment: COX-1 inhibition, monkey whole blood (Thromboxane B2 EIA)
T2 sequence (F6S984 25-599): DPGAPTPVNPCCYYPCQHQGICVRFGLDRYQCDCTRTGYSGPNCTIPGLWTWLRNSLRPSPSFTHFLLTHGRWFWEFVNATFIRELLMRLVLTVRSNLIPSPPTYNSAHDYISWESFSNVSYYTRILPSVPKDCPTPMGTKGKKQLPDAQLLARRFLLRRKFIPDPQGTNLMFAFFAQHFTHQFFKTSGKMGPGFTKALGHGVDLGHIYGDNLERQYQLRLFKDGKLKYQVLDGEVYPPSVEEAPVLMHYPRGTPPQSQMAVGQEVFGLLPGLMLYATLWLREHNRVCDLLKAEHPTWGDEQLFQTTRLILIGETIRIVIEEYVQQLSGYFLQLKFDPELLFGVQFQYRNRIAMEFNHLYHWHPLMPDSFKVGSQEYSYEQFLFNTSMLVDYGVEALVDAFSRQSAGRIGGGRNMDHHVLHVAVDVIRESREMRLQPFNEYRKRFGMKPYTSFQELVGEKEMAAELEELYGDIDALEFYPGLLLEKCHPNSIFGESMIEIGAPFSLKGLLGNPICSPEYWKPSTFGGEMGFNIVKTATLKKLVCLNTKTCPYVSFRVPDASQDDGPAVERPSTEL

COX-2 [6] = biological target: T3, COX-2 (Macaca mulatta, UniProt F7BWZ9); experiment: COX-2 inhibition, monkey whole blood (Prostaglandin E2 EIA)
T3 sequence (F7BWZ9 18-604): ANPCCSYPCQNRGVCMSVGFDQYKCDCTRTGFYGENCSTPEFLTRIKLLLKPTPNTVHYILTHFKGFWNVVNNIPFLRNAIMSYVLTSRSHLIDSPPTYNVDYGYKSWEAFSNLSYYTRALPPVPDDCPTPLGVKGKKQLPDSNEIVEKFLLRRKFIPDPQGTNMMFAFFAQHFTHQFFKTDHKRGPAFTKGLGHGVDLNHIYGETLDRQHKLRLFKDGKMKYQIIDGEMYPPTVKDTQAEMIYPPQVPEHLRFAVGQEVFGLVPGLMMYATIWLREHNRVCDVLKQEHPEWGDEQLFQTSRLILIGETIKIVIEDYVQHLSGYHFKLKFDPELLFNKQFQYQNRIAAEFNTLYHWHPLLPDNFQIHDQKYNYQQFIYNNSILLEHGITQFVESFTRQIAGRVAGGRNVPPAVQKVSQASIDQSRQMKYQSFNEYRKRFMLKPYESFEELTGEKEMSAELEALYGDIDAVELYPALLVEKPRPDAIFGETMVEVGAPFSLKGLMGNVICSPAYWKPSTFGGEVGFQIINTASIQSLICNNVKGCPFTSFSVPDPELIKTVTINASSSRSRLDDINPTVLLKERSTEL

[7] = Chart 1; cited from earlier work
COX-2 [8] = details: Chart 1; PET in vivo; ref literature cited in the text (18-30); cited from earlier work
COX-2 [9] = biological target: COX-2; set-up: method as in literature cited in the text (18-30); details: Chart 1; ref literature cited in the text (18-30); cited from earlier work

T1 sequence (P23219 24-599): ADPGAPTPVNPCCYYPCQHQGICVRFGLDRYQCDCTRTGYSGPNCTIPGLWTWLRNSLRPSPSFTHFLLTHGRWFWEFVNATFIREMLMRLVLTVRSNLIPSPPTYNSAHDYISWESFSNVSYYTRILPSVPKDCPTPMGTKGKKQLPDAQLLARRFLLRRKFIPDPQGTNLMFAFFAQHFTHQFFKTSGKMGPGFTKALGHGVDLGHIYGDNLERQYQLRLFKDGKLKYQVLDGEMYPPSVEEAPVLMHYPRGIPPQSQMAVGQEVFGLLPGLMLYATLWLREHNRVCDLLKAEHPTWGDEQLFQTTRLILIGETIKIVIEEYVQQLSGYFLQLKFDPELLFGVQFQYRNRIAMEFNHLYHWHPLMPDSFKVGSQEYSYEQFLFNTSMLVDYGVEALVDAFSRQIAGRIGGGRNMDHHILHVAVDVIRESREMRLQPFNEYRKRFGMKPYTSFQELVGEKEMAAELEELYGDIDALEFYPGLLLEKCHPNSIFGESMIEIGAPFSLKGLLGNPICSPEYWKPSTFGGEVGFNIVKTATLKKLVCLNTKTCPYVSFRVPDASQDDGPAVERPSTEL

COc1cc(NCc2cccs2)nc(-c2ccc(S(C)(=O)=O)cc2)n1 [Compound 17, 6-Methoxy-2-(4-(methylsulfonyl)phenyl)-N-(thiophen-2-ylmethyl)pyrimidin-4-amine]
IC50 (COX-1 [1]): > 8800 nM | IC50 (human COX-2; Table 1, human whole blood COX-2, SEM <15%, read-out: HWB IC50): […] | IC50 (human COX-2; footnote c, SE <15%, read-out: IC50 COX-2 Human WB (literature) (converted)): […] | IC50 (COX-1 [2]): > 1000 nM | inhibition of radioligand binding at all tested receptors, transporters, and binding sites [3]: less than 50% | inhibition at 10 µM (5-HT1B): 50% | inhibition at 10 µM [4]: 53.7% | inhibition of radioligand binding at benzodiazepine (BzP) (benzodiazepine (BzP)): 50.6% | melting point: 139 to 141 °C | IC50 (COX-1 [5]): > 1000 nM | IC50 (COX-2 [6]): 2.58 ± 0.23 nM

CS(=O)(=O)c1ccc(-c2ccsc2-c2ccc([18F])cc2)cc1 [[^18F]9, [^18F]desbromo-DuP-697]
logP [7]: 3.72 | brain entry (COX-2 [8]): Brain penetrant | Ki (COX-2 [9]): 250 nM

CS(=O)(=O)c1ccc(-c2cc(C(F)(F)F)nc(NCc3ccc([18F])cc3)n2)cc1 [[^18F]10, [^18F]pyricoxib]
logD [7]: 3.37
